Experimental data taken from paper PMC10778980, “Profiling Novel Quinuclidine-Based Derivatives as Potential Anticholinesterase Drugs: Enzyme Inhibition and Effects on Cell Viability” (International Journal of Molecular Sciences, 2023).
Entries after “also recorded” stand apart in the source; their conditions may differ. Like-named read-outs stand apart in the source and are kept apart here.

How the values were obtained:
HepG2 cells [1] = test: Cytotoxicity assay (MTS) on HepG2; assay type: cell-based; settings: Homo sapiens
Procedure: (§1) SH-SY5Y cells were grown in DMEM F12 (Sigma-Aldrich, St. Louis, MO, USA) supplemented with 15% (v/v) fetal bovine serum (FBS), 2 mM glutamine, and 1% (v/v) non-essential amino acids (NEAA). HepG2 cells were grown in EMEM supplemented with 10% (v/v) FBS, 2 mM glutamine, and 1% (v/v) non-essential amino acids NEAA. All media and supplements were purchased from Sigma-Aldrich, Steinheim, Germany.
(§2) The procedure followed a previously described protocol.

caspase 8 = test: Caspase 8 activity in SH-SY5Y (multiplex activity assay kit); assay type: cell-based, human; settings: 4 h treatment, LOAEL concentrations
Procedure: as §1
Caspases (cysteine-aspartic proteases) caspase 3, caspase 8, and caspase 9 were simultaneously analyzed in cells using specific substrate and fluorogenic indicators from the Caspase-3, Caspase-8, and Caspase-9 Multiplex Activity Assay Kit (Abcam, Cambridge, UK). […] The procedure followed a previously described protocol. […] Data were evaluated from at least three independent experiments (performed in duplicate or triplicate), according to the manufacturer’s assay kit calculation protocol, and presented as a normalized signal to the untreated control.

HepG2 cells [2] = test: Cell membrane integrity (LDH release) on HepG2; assay type: cell-based, human; settings: HepG2, 4 h exposure, 12.5–200 µM
Procedure: (§3) Human neuroblastoma SH-SY5Y (ECACC 94030304) and human hepatocyte carcinoma HepG2 (ECACC 85011430) were used to evaluate in vitro dose- and time-dependent different cell effects. The SH-SY5Y cell line was selected as it represents a well-established model for studying neuronal cells, while HepG2 hepatocytes represent a liver model as a major organ participating in the metabolism of diverse compounds [31, 61, 62]. SH-SY5Y cells were grown in DMEM F12 (Sigma-Aldrich, St. Louis, MO, USA) supplemented with 15% (v/v) fetal bovine serum (FBS), 2 mM glutamine, and 1% (v/v) non-essential amino acids (NEAA). HepG2 cells were grown in EMEM supplemented with 10% (v/v) FBS, 2 mM glutamine, and 1% (v/v) non-essential amino acids NEAA. All media and supplements were purchased from Sigma-Aldrich, Steinheim, Germany.
(§4) Cell membrane integrity was determined after 4 h exposure to derivatives 3–5 and 10–12 by measuring the release of the intracellular lactate dehydrogenase (LDH), and the procedure followed a previously described protocol using The CytoTox-ONE™ Homogeneous Membrane Integrity Assay (Promega, Madison, WI, USA). Triton X-100 at a final concentration of 0.18% (v/v) (stock of 9% in water; Sigma-Aldrich, Steinheim, Germany) was used as a positive control to determine the maximal LDH release. Data were taken from at least two independent experiments (each treatment performed in duplicate) and plotted as a percentage of LDH release compared to the determined maximal LDH release, according to the manufacturer’s calculation protocol.

SH-SY5Y cells [3] = test: Mitochondrial membrane potential (TMRE assay) on SH-SY5Y; assay type: cell-based, human; settings: 4 h exposure, LOAEL concentrations
Procedure: as §3
(§5) Mitochondrial membrane potential (ΔΨm) was determined using a cell-permeable, potential-sensitive cationic dye, tetramethylrhodamine ethyl ester perchlorate (TMRE, Cell Signaling Technology Europe, Leiden, The Netherlands). Cells were exposed for 4 h to derivatives 3–5 and 10–12. The procedure followed a previously described protocol. A concentration of 50 µM carbonyl cyanide 3-chlorophenylhydrazone (CCCP, Cell Signaling Technology Europe, Leiden, The Netherlands) was used as a positive control. Data were evaluated from at least three independent experiments (performed in duplicate) and presented as a normalized signal to the untreated control, according to the manufacturer’s calculation protocol.

HepG2 cells [4] = test: Mitochondrial membrane potential (TMRE assay) on HepG2; assay type: cell-based, human; settings: HepG2, 4 h exposure, LOAEL concentrations
Procedure: as §3, §5

human AChE = biological target: T1, human AChE (Homo sapiens, UniProt P22303); test: Reversible inhibition of AChE (Ellman's procedure, Hunter–Downs evaluation); assay type: biochemical; settings: for Ki: Ki ± standard error, 0.1, 0.2, 0.35 and 0.5 mM substrate ATCh, 25 °C, pH 7.4; for Ki (AChE)/Ki (BChE): selectivity ratio
T1 construct: The sources of human AChE and BChE were native erythrocytes and plasma, respectively; from tissue; host or cells: human erythrocytes from venous blood of a healthy volunteer
From the text: (§6) Cholinesterase substrate acetylthiocholine (ATCh) and the thiol reagent 5,5′-dithiobis(2-nitrobenzoic acid) (DTNB) for the enzyme activity measurement were purchased from Sigma-Aldrich (St. Louis, MO, USA). The sources of human AChE and BChE were native erythrocytes and plasma, respectively, obtained from the blood of a healthy volunteer and in accordance with the approval of the Ethics Committee of the Institute for Medical Research and Occupational Health (approval number: 100-21/23-6). Erythrocytes and plasma were isolated from the whole blood and prepared according to a previously published procedure. Namely, venous blood was collected into a heparinized tube and centrifuged (at 4 °C, 20 min on 2500 rpm, Eppendorf centrifuge 5702R) to separate plasma from the erythrocytes. Plasma was removed and used as a source of BChE, while erythrocytes were washed twice with the 0.1 M sodium phosphate buffer, pH 7.4, in a volume corresponding to the initial volume of the whole blood. Both plasma and erythrocytes were frozen at −20 °C until use. Quinuclidine compounds were dissolved in dH2O as 10 or 100 mM; exceptionally, 3-hydroxyimino compounds with longer chains (C12−C16) were dissolved in DMSO as 100 mM solutions. Stock solutions were kept at 4 °C until use. Further dilutions were made in distilled water.
(§7) The reversible inhibition experiments followed a previously published procedure. Namely, the enzyme activity was measured in the presence of a wide range of quinuclidine compound concentrations and in the substrate range from 0.1 to 0.5 mM to confirm the type of compound binding. The activity was assayed following the Ellman’s procedure, with the modification in the wavelength used for detection of the TNB anion in the case of AChE activity measurement due to the interference of the hemoglobin, and according to Worek et al.. The assay was performed in 96-well plates on an Infinite M200PRO plate reader (Tecan Austria GmbH, Salzburg, Austria) at 25 °C. Each concentration was tested in triplicate or quadruplicate on each plate. The inhibition mixture contained 0.1 M sodium phosphate buffer, pH 7.4, enzyme (AChE or BChE), quinuclidine compound (0.2–400 μM final), DTNB (0.3 mM final), and ATCh (from 0.1 to 0.5 mM final) to start the reaction. The increase in absorbance was read at 436 nm for AChE and at 412 nm for BChE. The measured activity in the presence of compounds was corrected for the non-enzymatic hydrolysis of substrate ATCh, if detected. The reversible enzyme–quinuclidine complex dissociation constants (the inhibition constants) Ki were evaluated from the effect of the substrate concentration on the degree of inhibition according to the Hunter–Downs equation as described previously, taking into account only quinuclidine concentrations where 20–80% inhibition of the activity was observed.

SH-SY5Y cells [5] = settings: cited from earlier work
human BChE = biological target: T2, human BChE (Homo sapiens, UniProt P06276); test: biochemical; settings: Ki ± standard error; 0.1, 0.2, 0.35 and 0.5 mM substrate ATCh; 25 °C, pH 7.4; read-out: Ki BChE
T2 construct: Plasma was removed and used as a source of BChE; from tissue; host or cells: human blood plasma from a healthy volunteer
From the text: as §6, §7

SH-SY5Y cells [6] = test: Cell membrane integrity (LDH release) on SH-SY5Y; assay type: cell-based, human; settings: 4 h exposure, 12.5–200 µM
Procedure: as §3, §4

SH-SY5Y cells [7] = test: Cytotoxicity assay (MTS) on SH-SY5Y; assay type: cell-based; settings: Homo sapiens
Procedure: as §1, §2

[8] = HepG2, read-out: IC50 ± SE HepG2 1 h, 1 h exposure
[9] = HepG2, 4 h exposure, read-out: IC50 ± SE HepG2 4 h
[10] = HepG2, 24 h exposure, read-out: IC50 ± SE HepG2 24 h
[11] = 24 h exposure, read-out: IC50 ± SE SH-SY5Y 24 h
[12] = 4 h exposure, read-out: IC50 ± SE SH-SY5Y 4 h
[13] = read-out: IC50 ± SE SH-SY5Y 1 h, 1 h exposure

T2 sequence (P06276 29-602): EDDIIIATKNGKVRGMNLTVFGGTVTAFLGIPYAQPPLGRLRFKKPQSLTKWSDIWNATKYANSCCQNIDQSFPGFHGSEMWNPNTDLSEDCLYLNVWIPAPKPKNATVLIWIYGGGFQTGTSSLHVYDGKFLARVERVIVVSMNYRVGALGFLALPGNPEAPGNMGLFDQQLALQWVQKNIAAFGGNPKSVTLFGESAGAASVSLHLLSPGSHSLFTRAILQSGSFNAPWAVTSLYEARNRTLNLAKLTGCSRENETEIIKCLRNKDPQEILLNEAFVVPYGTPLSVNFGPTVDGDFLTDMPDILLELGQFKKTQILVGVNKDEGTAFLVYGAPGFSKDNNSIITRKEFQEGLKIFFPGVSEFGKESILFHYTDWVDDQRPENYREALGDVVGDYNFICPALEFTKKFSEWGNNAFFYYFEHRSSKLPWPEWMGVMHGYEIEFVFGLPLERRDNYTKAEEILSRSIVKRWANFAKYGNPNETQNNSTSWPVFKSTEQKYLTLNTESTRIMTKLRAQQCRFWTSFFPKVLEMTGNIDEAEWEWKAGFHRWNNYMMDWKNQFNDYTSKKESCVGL
T1 sequence (P22303 32-617 isoform P22303-2 limits assumed): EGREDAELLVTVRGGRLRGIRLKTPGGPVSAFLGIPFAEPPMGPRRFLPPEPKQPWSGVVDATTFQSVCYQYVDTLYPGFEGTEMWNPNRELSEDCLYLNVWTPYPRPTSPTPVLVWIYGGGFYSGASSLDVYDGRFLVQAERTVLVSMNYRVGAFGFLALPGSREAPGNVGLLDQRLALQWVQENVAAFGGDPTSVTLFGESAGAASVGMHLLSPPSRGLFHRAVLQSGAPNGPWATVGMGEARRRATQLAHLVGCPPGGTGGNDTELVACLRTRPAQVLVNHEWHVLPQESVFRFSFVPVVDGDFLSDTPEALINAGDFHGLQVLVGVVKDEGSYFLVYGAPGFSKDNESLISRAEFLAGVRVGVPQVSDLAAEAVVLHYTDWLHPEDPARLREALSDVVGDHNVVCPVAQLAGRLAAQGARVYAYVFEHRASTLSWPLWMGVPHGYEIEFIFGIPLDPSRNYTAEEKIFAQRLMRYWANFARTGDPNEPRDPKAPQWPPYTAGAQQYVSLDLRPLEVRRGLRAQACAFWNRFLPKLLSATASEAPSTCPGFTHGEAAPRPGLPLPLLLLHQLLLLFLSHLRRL

CCCCCCCCCCCC[N+]12CCC(CC1)/C(=N\O)C2 [Compound 10]
IC50 (HepG2 cells [1]; [8]): 218 ± 1 µM
IC50 (HepG2 cells [1]; [9]): 81 ± 1 µM
IC50 (HepG2 cells [1]; [10]): 15 ± 1 µM
Caspase 8 activation (caspase 8): significant activation
LDH release (HepG2 cells [2]): significant LDH release
Mitochondrial membrane potential (ΔΨm) (SH-SY5Y cells [3]): decrease in the mitochondrial membrane potential
Mitochondrial membrane potential (ΔΨm) (HepG2 cells [4]): decrease in the mitochondrial membrane potential
Ki (human AChE): 14.3 ± 1.8 µM
Ki (AChE)/Ki (BChE) (human AChE): 2.6
IC50 (SH-SY5Y cells [5]; [11]): 147 ± 1 µM
Ki (human BChE): 5.4 ± 0.8 µM
LDH release (SH-SY5Y cells [6]): strongest effect; also recorded: significant LDH release
IC50 (SH-SY5Y cells [7]; [12]): 174 ± 1 µM
IC50 (SH-SY5Y cells [7]; [13]): 208 ± 3 µM

CCCCCCCCCCCCCC[N+]12CCC(CC1)/C(=N\O)C2 [Compound 11]
IC50 (HepG2 cells [1]; [8]): 37 ± 1 µM
IC50 (HepG2 cells [1]; [9]): 18 ± 1 µM
IC50 (HepG2 cells [1]; [10]): 11 ± 1 µM
Caspase 8 activation (caspase 8): significant activation
LDH release (HepG2 cells [2]): significant LDH release
Mitochondrial membrane potential (ΔΨm) (SH-SY5Y cells [3]): decrease in the mitochondrial membrane potential
Mitochondrial membrane potential (ΔΨm) (HepG2 cells [4]): decrease in the mitochondrial membrane potential
Ki (human AChE): 7 ± 0.9 µM
Ki (AChE)/Ki (BChE) (human AChE): 0.8
Ki (human BChE): 8.8 ± 1 µM
LDH release (SH-SY5Y cells [6]): strongest effect; also recorded: significant LDH release
IC50 (SH-SY5Y cells [7]; [12]): 83 ± 3 µM
IC50 (SH-SY5Y cells [7]; [11]): 60 ± 1 µM
IC50 (SH-SY5Y cells [7]; [13]): 125 ± 2 µM

CCCCCCCCCCCCCCCC[N+]12CCC(CC1)/C(=N\O)C2 [Compound 12]
IC50 (HepG2 cells [1]; [8]): 40 ± 1 µM
IC50 (HepG2 cells [1]; [9]): 20 ± 1 µM
IC50 (HepG2 cells [1]; [10]): 7 ± 1 µM
Caspase 8 activation (caspase 8): significant activation
LDH release (HepG2 cells [2]): significant LDH release
Mitochondrial membrane potential (ΔΨm) (SH-SY5Y cells [3]): decrease in the mitochondrial membrane potential
Mitochondrial membrane potential (ΔΨm) (HepG2 cells [4]): decrease in the mitochondrial membrane potential
Ki (human AChE): 19 ± 1.6 µM
Ki (AChE)/Ki (BChE) (human AChE): 0.4
Ki (human BChE): 48.6 ± 3.8 µM
LDH release (SH-SY5Y cells [6]): strongest effect; also recorded: significant LDH release
IC50 (SH-SY5Y cells [7]; [12]): 78 ± 1 µM
IC50 (SH-SY5Y cells [7]; [11]): 54 ± 1 µM
IC50 (SH-SY5Y cells [7]; [13]): 89 ± 1 µM

CN[C@@H]1C[C@H]2O[C@@](C)([C@@H]1OC)n1c3ccccc3c3c4c(c5c6ccccc6n2c5c31)C(=O)NC4 [SS, staurosporine]
IC50 (SH-SY5Y cells [5]; 24 h exposure, controls, read-out: IC50 ± SE SH-SY5Y 24 h): 0.12 ± 0.01 µM
IC50 (SH-SY5Y cells [5]; read-out: IC50 ± SE SH-SY5Y 1 h, 1 h exposure, controls): ≥ 4 µM
